In brackets after ≈: the same amount, converted by molar mass. Entries after “also recorded” stand apart in the source; their conditions may differ. Where two headings read alike, the source gives them in different places.
Columns and labels:
AB5075 [1] = assay: Broth microdilution MIC of compound alone (standalone toxicity); type: cell-based, Acinetobacter baumannii
Outline: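 A. baumannii 5075 subcultured to 5×10^5 CFU/mL in cation-adjusted Mueller-Hinton broth; compound twofold serially diluted from 200 μM (DMSO stock) and incubated stationary at 37° C for 16 h. MIC taken as lowest concentration with no visible growth; duplicates, repeated at least twice.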

AB5075 [2] = assay: Broth microdilution clarithromycin (CLR) potentiation and dose-response of adjuvant; type: cell-based, Acinetobacter baumannii
Outline: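 A. baumannii AB5075 at 5×10^5 CFU/mL in CAMHB with fixed adjuvant (DMSO ≤0.3%) and two-fold serially diluted clarithromycin or colistin, stationary 16 h at 37° C. MIC = lowest concentration without visible growth; fold reduction versus antibiotic alone. Dose-response used adjuvant at 0–30 μM.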

[3] = test system: E. coli biofilm formation; details: Bioorg Med Chem Lett 2010; cited from earlier work
AB5075 [4] = details: previously reported, cited from earlier work
AB5075 [5] = details: previously reported, cited from earlier work; remark: listed apart in the source
AB5075 [6] = details: compound alone, previously reported; cited from earlier work
AB5075 [7] = assay: Colistin MIC in presence of adjuvant (broth microdilution antibiotic potentiation); type: cell-based, Acinetobacter baumannii
Procedure: Bacterial Strains and Antimicrobial Agents. Acinetobacter baumannii clinical isolate 5075 was obtained from Dr. Colin Manoil at the University of Washington. Colonies were grown on lysogeny broth (LB) agar. Cation-adjusted Mueller-Hinton Broth (CAMHB) (catalog number 212322) were purchased from BD Diagnostics. LB broth was purchased from Fisher Scientific (catalog number BP9722-2). […] Colistin sulfate salt (catalog number C4461) was purchased from Sigma Aldrich. All assays were completed in duplicate and repeated at least two separate times. All compounds were dissolved as their HCl salts in molecular biology grade DMSO as 10 or 100 mM stock solutions and stored at −20° C. Colistin was dissolved in sterile water while clarithromycin was dissolved in molecular biology grade DMSO.
Broth microdilution method for antibiotic potentiation. Day cultures (6 h) of bacteria in CAMHB were subcultured to 5×10^5 CFU/mL in CAMHB. Aliquots (4 mL) were placed in culture tubes and dosed with compound from 10 mM stock samples to give the desired concentration of the compound to be tested against the particular bacterial strain; this insured non-toxic DMSO concentrations ≤0.3% in each well. 1 mL of the resulting solution was placed in a separate culture and dosed with antibiotic at the highest concentration to be tested. Bacteria treated with antibiotic alone served as the control. Row one of a 96-well plate was filled with 200 μL of the antibiotic/2-AI solution, and rows 2-12 were filled with 100 μL each of the remaining 4 mL of bacterial subculture containing adjuvant at the desired concentration, except for the control lane which contained only bacterial subculture. Row one was then mixed five times, and 100 μL was transferred to row two, which was then mixed five times before being transferred to row three. This process was repeated until all rows had been mixed, except for row twelve which would have only 2-AI to serve as a control to monitor potential toxicity. The 96-well plate was then covered in Glad Press n'Seal and incubated under stationary conditions at 37° C. for 16 h. MIC values were determined as the lowest concentration at which no bacterial growth was observed, and fold reductions were determined by comparison to antibiotic control lane.
Dose-response of Adjuvant Assay. The procedure for ‘broth microdilution method for antibiotic potentiation’ was followed using 4 mL aliquots of adjuvant at various concentrations: 0, 5, 7.5, 10, 15, 20, 25, and 30 μM.

AB5075 [8] = assay: Evolution of clarithromycin resistance by serial passage; type: cell-based, Acinetobacter baumannii
Procedure: A. baumannii 5075 was grown in CAMHB overnight then subcultured (5×10^5 CFU/mL) in 6 mL of fresh CAMHB. Adjuvant was added into this 6-mL subculture at either 10 or 30 μM concentrations. […] This was serially repeated for a period of nine days.

[9] = test system: A. baumannii isolates (23 strains); assay: Minimum inhibitory concentration against AB isolates; type: cell-based, Acinetobacter baumannii; details: CLR alone
Procedure: Broth microdilution method for MIC determination. Day cultures (6 h) of each bacterial strain in cation adjusted Mueller Hinton II broth (CAMHB, Fisher Scientific U.S.) were subcultured to 5×10^5 CFU/mL in CAMHB. Aliquots (1 mL) were placed in culture tubes and compound was added from 10 mM stock samples in DMSO, such that compound concentration equaled highest concentration tested (200 μM). Samples were then aliquoted (200 μL) into the first wells of a 96-well plate, with all remaining wells being filled with 100 μL of initial bacterial subculture. Row one wells were mixed five times, before 100 μL was transferred to row two. Row two was then mixed five times, and 100 μL was transferred to row three. This process was repeated until the final row had been mixed; this served to serially dilute the compound. Plates were then covered with GLAD Press n'Seal and incubated under stationary conditions at 37° C. for 16 h. MIC values were then recorded as the lowest concentration at which no bacterial growth was observed.

[10] = passaging with CLR and 30 μM adjuvant 1, day 2 and day 9, adjuvant 1 at 30 μM

## Nc1nc(-c2ccc(NC(=O)c3cc(F)cc(F)c3)cc2)c[nH]1 [Compound 4k]
AB5075 [1]; Acinetobacter baumannii
  MIC: > 200 µM
AB5075 [2]; compound tested at 30 μM
  CLR MIC: 4 µg/mL
  Fold Reduction of CLR MIC: eight-fold
AB5075 [2]; dosed at 30 μM
  adjuvant activity (CLR potentiation), rank by amide linker position: highest adjuvant activity
[3]
  biofilm inhibition activity: lead biofilm inhibitor

## Nc1nc(-c2ccc(NC(=O)c3cc(Br)cc(Br)c3)cc2)c[nH]1 [Compound 2]
AB5075 [4]; compound at 10 μM
  Fold Reduction of CLR MIC: 16 fold
AB5075 [4]; compound at 30 μM
  Fold Reduction of CLR MIC: 128 fold
AB5075 [5]; compound at 30 μM
  Colistin MIC: 4 µg/mL
AB5075 [6]
  MIC: 100 µM (≈ 43.6 µg/mL)

## Cl.Nc1nc(-c2ccc(NC(=O)c3ccc(Cl)c(Cl)c3)cc2)c[nH]1 [Compound 4r]
AB5075 [1]
  MIC: 100 µM
AB5075 [2]; compound tested at 7.5 μM
  CLR MIC: 8 µg/mL
AB5075 [2]; compound tested at 10 μM
  CLR MIC: 4 µg/mL
  Fold Reduction of CLR MIC: eight
AB5075 [2]; compound tested at 20 μM
  CLR MIC: 0.5 µg/mL
AB5075 [2]; compound tested at 30 μM
  Fold Reduction of CLR MIC: 64 fold
AB5075 [7]; compound tested at 30 μM
  Colistin MIC: 4 µg/mL

## Cl.Nc1nc(-c2ccc(NC(=O)c3cc(Cl)cc(Cl)c3)cc2)c[nH]1 [Compound 1, N-(4-(2-amino-1H-imidazol-4-yl)phenyl)-3,5-dichlorobenzamide hydrochloride]
AB5075 [4]; compound at 10 μM
  Fold Reduction of CLR MIC: 16 fold
AB5075 [5]; compound at 30 μM
  Colistin MIC: 4 µg/mL
AB5075 [8]; AB5075 passaged with CLR and 30 μM adjuvant, nine-day course, hydrochloride
  suppression of evolution of CLR resistance: suppressed the increase in macrolide resistance; also recorded: suppresses the acquisition of CLR resistance
AB5075 [8]; CLR-resistant AB5075 mutant from CLR-alone passaging, compound at 30 μM
  CLR MIC: 2 µg/mL
AB5075 [8]; [10]
  CLR MIC: 0.25 µg/mL
  Fold Reduction of CLR MIC: 128 fold
AB5075 [8]; serial passage with CLR + adjuvant 1 (30 μM), day 2, compound 1 tested at 30 μM
  CLR MIC: 0.25 µg/mL
AB5075 [8]; serial passage with CLR + adjuvant 1 (30 μM), day 4, compound 1 tested at 30 μM
  CLR MIC: 0.25 µg/mL
AB5075 [8]; serial passage with CLR + adjuvant 1 (30 μM), day 6, compound 1 tested at 30 μM
  CLR MIC: 0.25 µg/mL
AB5075 [8]; serial passage with CLR + adjuvant 1 (30 μM), day 8, compound 1 tested at 30 μM
  CLR MIC: ≤0.5 µg/mL
AB5075 [8]; serial passage with CLR + adjuvant 1 (30 μM), day 10, compound 1 tested at 30 μM
  CLR MIC: 0.25 µg/mL

## Cl.Nc1nc(-c2ccc(NC(=O)c3c(Cl)cc(Cl)cc3Cl)cc2)c[nH]1 [Compound 4s]
AB5075 [1]
  MIC: 100 µM
AB5075 [2]; compound tested at 10 μM
  CLR MIC: 32 µg/mL
AB5075 [2]; compound tested at 20 μM
  CLR MIC: 16 µg/mL
AB5075 [2]; compound tested at 25 μM
  CLR MIC: 8 µg/mL
AB5075 [7]; compound tested at 30 μM
  Colistin MIC: 0.25 µg/mL

## Colistin sulfate salt [reference compound]
AB5075 [5]; colistin alone
  Colistin MIC: 1 µg/mL
AB5075 [7]; colistin alone, no adjuvant
  Colistin MIC: 0.5 µg/mL

## CC[C@H]1OC(=O)[C@H](C)[C@@H](O[C@H]2C[C@@](C)(OC)[C@@H](O)[C@H](C)O2)[C@H](C)[C@@H](O[C@@H]2O[C@H](C)C[C@H](N(C)C)[C@H]2O)[C@](C)(OC)C[C@@H](C)C(=O)[C@H](C)[C@@H](O)[C@]1(C)O [CLR, clarithromycin, reference compound]
[9]; A. baumannii strain 3560
  CLR MIC: 32 µg/mL
[9]; A. baumannii strain 3785
  CLR MIC: 64 µg/mL
[9]; A. baumannii strain 3806
  CLR MIC: 16 µg/mL
[9]; A. baumannii strain 3927
  CLR MIC: 32 µg/mL
[9]; A. baumannii strain 4025
  CLR MIC: 64 µg/mL
[9]; A. baumannii strain 4026
  CLR MIC: 64 µg/mL
[9]; A. baumannii strain 4027
  CLR MIC: 64 µg/mL
[9]; A. baumannii strain 4052
  CLR MIC: 32 µg/mL
[9]; A. baumannii strain 4269
  CLR MIC: 32 µg/mL
[9]; A. baumannii strain 4448
  CLR MIC: 32 µg/mL
[9]; A. baumannii strain 4456
  CLR MIC: 32 µg/mL
[9]; A. baumannii strain 4490
  CLR MIC: 32 µg/mL
[9]; A. baumannii strain 4498
  CLR MIC: 64 µg/mL
[9]; A. baumannii strain 4795
  CLR MIC: 32 µg/mL
[9]; A. baumannii strain 4857
  CLR MIC: 64 µg/mL
[9]; A. baumannii strain 4878
  CLR MIC: 32 µg/mL
[9]; A. baumannii strain 4957
  CLR MIC: 32 µg/mL
[9]; A. baumannii strain 4991
  CLR MIC: 32 µg/mL
[9]; A. baumannii strain 5001
  CLR MIC: 32 µg/mL
[9]; A. baumannii strain 5197
  CLR MIC: 64 µg/mL
[9]; A. baumannii strain 5256
  CLR MIC: 32 µg/mL
[9]; A. baumannii strain 5711
  CLR MIC: 64 µg/mL
[9]; A. baumannii strain 8967
  CLR MIC: 16 µg/mL
AB5075 [2]; CLR alone, no adjuvant
  CLR MIC: 32 µg/mL
AB5075 [4]; CLR alone
  CLR MIC: 32 µg/mL
AB5075 [8]; CLR-alone exposure of AB5075, day 0
  CLR MIC: 32 µg/mL
AB5075 [8]; CLR-alone exposure of AB5075, day 4
  CLR MIC: 128 µg/mL
AB5075 [8]; CLR-alone exposure of AB5075, day 6
  CLR MIC: 512 µg/mL
AB5075 [8]; CLR-resistant AB5075 mutant from CLR-alone passaging, no adjuvant
  CLR MIC: 512 µg/mL
AB5075 [8]; passaging with CLR and 30 μM adjuvant 1, day 2 and day 9, without adjuvant
  CLR MIC: 32 µg/mL
AB5075 [8]; serial passage with CLR + adjuvant 1 (30 μM), day 2, compound 1 tested at 0 μM
  CLR MIC: 16 µg/mL
AB5075 [8]; serial passage with CLR + adjuvant 1 (30 μM), day 4, compound 1 tested at 0 μM
  CLR MIC: 32 µg/mL
AB5075 [8]; serial passage with CLR + adjuvant 1 (30 μM), day 6, compound 1 tested at 0 μM
  CLR MIC: 32 µg/mL
AB5075 [8]; serial passage with CLR + adjuvant 1 (30 μM), day 8, compound 1 tested at 0 μM
  CLR MIC: 32 µg/mL
AB5075 [8]; serial passage with CLR + adjuvant 1 (30 μM), day 10, compound 1 tested at 0 μM
  CLR MIC: 32 µg/mL

## Cl.Nc1nc(-c2ccc(NC(=O)c3cc(F)c(F)c(F)c3)cc2)c[nH]1 [Compound 4v]
AB5075 [1]
  MIC: 100 µM
AB5075 [2]; compound tested at 10 μM
  CLR MIC: 32 µg/mL
AB5075 [2]; compound tested at 20 μM
  CLR MIC: 8 µg/mL
AB5075 [2]; compound tested at 30 μM
  CLR MIC: 1 µg/mL
AB5075 [7]; compound tested at 30 μM
  Colistin MIC: 1 µg/mL
